Reference: patent US10149809B2, “Skin aging inhibitor and concentrate of resveratrol 3-O-α-glucoside” (priority 2014, dated 2018)
Converted amounts (≈) assume the structure as drawn.

Key:
Solubility in water = format: physicochemical; conditions: water
Method: (§1) Approximately 5 mg each of resveratrol 3-O-α-glucoside, resveratrol (Tokyo Chemical Industry Co., Ltd.), and resveratrol 3-O-β-glucoside (Tokyo Chemical Industry Co., Ltd.) was weighed, approximately 1 mL of water was added thereto, and the mixture was soaked in a water bath at 25° C. under light-tight conditions, and incubated for 20 hours with occasional stirring. After 20 hours, each of the samples was filtered through a 0.45 μm centrifugal filter, and then the concentration of each of the components in the filtrate was analyzed using HPLC under the same conditions as those described in Production Example 1 above. The dissolved concentration (w/v %) in water at 25° C. was thus determined.

[1] = Storage stability in 30 vol % aqueous ethanol (coloration, residual content); format: physicochemical; conditions: 2 mM in 30 vol % aqueous ethanol, 40° C., light-tight, 6 months; for Residual Content (%): HPLC
Method: Each of resveratrol 3-O-α-glucoside (produced in Production Example 1), resveratrol (Tokyo Chemical Industry Co., Ltd.), and resveratrol 4′-O-α-glucoside (produced in Production Example 1) was dissolved in a 30 vol % aqueous solution of ethanol to a concentration of 2 mM, and the solution was stored at 40° C. under light-tight conditions. The coloration of the solution after being stored for 6 months was visually observed. Further, absorbances at 430 nm of the solution before and after the storage were measured, and the residual amount of each of the components in the solution was analyzed using HPLC. HPLC was performed under the same conditions as those described in Production Example 1.

[2] = Solubility in solvent containing dipropylene glycol; format: physicochemical; conditions: 25 °C, water, thermodynamic from solid
Method: as §1, with “Approximately 40” for “Approximately 5”, “approximately 70 mg” for “approximately 1 mL”, “of a solvent (whose composition is shown in Table 18) containing ethanol (Wako Pure Chemical Industries, Ltd.)” for “of water”, “for 15” for “for 20”, “After 15” for “After 20”, “%)” for “%) in water”
The solubility of resveratrol 3-O-α-glucoside was evaluated under the same conditions as those described in Example 18 above, except that a solvent (whose composition is shown in Table 22) containing dipropylene glycol (Asahi Glass Co., Ltd.) was used.

[3] = test system: skin model (EPI-200X; MatTek); format: in vitro ADME, human; conditions: human, 20 h, 0.2 wt %
Method: Using a three-dimensional human skin model, permeabilities of resveratrol 3-O-α-glucoside and resveratrol into the skin model when administered via the skin surface were compared.
Resveratrol 3-O-α-glucoside or resveratrol (Tokyo Chemical Industry Co., Ltd.) was prepared into a 0.2 wt % solution or suspension with the addition of PBS, and the resulting solution was used as a test substance. The skin model (EPI-200X; MatTek) was loaded into a special fixture (EPI-100-FIX; MatTek), and placed in the 6-well plate of the receiver. One-hundred microliters of the test substance were added to the horny layer side, and 5 mL of PBS was added to the receiver side. After being allowed to stand at 37° C. for 20 hours, the skin model was collected, and the surface of the skin model was washed well with PBS. The skin model after being washed was homogenized in PBS. After the homogenate was centrifuged, resveratrols in the supernatant were quantified using HPLC under the same conditions as described in Production Example 1 above, and the amount of resveratrols was converted into the equivalent of agly cones.

[4] = test system: skin model (MEL-312B; MatTek); test: Melanogenesis suppressing effect in skin model (amount of melanin, visual observation); format: cell-based; conditions: 0.2 wt % in PBS, 50 μL, 16 days; PBS control group = 100%
Method: Resveratrol 3-O-α-glucoside, resveratrol (Tokyo Chemical Industry Co., Ltd.), or resveratrol 3-O-β-glucoside (Tokyo Chemical Industry Co., Ltd.) was prepared into a 0.2 wt % solution or suspension with the addition of PBS, and the resulting solution or suspension was used as a test substance. A skin model (MEL-312B; MatTek) was used, and 50 μL of the test substance was added to the horny layer side of the skin model and cultured in a special medium (EPI-100NMM-113; MatTek) at 37° C. for 16 days. On days 2, 4, 7, 9, 11, and 14, the medium and the test substance were replaced with fresh ones. As a control group, the same operation was performed using PBS instead of the test substance.
After 16 days of culture, the skin model was visually observed, and the amount of melanin in the skin model was evaluated. The amount of melanin was measured using the following method. Initially, the collected skin model was subjected to enzymatic degradation by proteinase-K, and was subsequently homogenated in PBS containing 1% triton X-100. Melanin was then extracted by washing with 10% TCA and ethanol. Next, the extracted melanin was dissolved in 0.5 mL of 1N-NaOH containing 10% DMSO at 80° C. for 2 hours, and the amount of melanin was quantified by measuring absorbance at 470 nm.
Resveratrol 3-O-α-glucoside was prepared into a 0.2 wt % solution, a 0.1 wt % solution, or a 0.01 wt % solution with the addition of PBS. The resulting solution was used as a test substance, and the melanogenesis suppressing effect was evaluated using the same method as that of Example 1 above. […]

solubility thermodynamic at 20 h (Solubility in water; 25 °C, thermodynamic from solid)	solubility thermodynamic at 15 h [2]	Concentration in the Skin Model (Value Converted into the Equivalent of Aglycones, μg/cm^2) [3]	Compound	Dissolved Concentration (μg/mL) in Water (Solubility in water; 25° C., 20 hours)	Coloration: Difference between Absorbances at 430 nm (Δ A 430) before and after Storage [1]	Coloration: Visual Observation [1]	Residual Content (%) [1]	Relative Amount of Melanin [4]
			OC[C@H]1O[C@H](Oc2ccc(C=Cc3cc(O)cc(O)c3)cc2)[C@H](O)[C@@H](O)[C@@H]1O [Resveratrol 4′-O-α-Glucoside, resveratrol 4′-O-α-glucoside]	150 µg/mL	0.21	slightly colored	86%	
30 µg/mL (≈ 131 µM)	30 µg/mL (≈ 131 µM)	7.5 μg/cm^2	Oc1ccc(C=Cc2cc(O)cc(O)c2)cc1 [Resveratrol, resveratrol]		1.36	strongly	60%	63%
